The values below come from ChEMBL document CHEMBL1122505, “Pyrimidine and triazine 3-oxide sulfates: a new family of vasodilators” (1983).

Counter-ions that a name gives are not always drawn.

What all share (type): functional, Artery
Assay [1] relates to Rattus norvegicus. Kind of assay: Average change in mean arterial blood pressure (mmHg) observed at 4 hr after oral administration at a dose of 5 mg/kg in female Sprague-Dawley rats.
For assay [2], the system named is Rattus norvegicus. In words: Average change in mean arterial blood pressure (mmHg) observed at 4 hr after oral administration at a dose of 14 mg/kg in female Sprague-Dawley rats.
Assay [3] concerns Rattus norvegicus. In words: Average change in mean arterial blood pressure (mmHg) observed at 4 hr after oral administration at a dose of 0.15 mg/kg in female Sprague-Dawley rats.
Assay [4] relates to Rattus norvegicus. In words: Average change in mean arterial blood pressure (mmHg) observed at 4 hr after oral administration at a dose of 50 mg/kg in female Sprague-Dawley rats.

Regarding `C=CCN(CC=C)c1nc(N)[n+](OS(=O)(=O)[O-])c(N)n1`, the Delta blood pressure in the assay on Rattus norvegicus [1] was -21 mmHg.
Regarding `Cc1cc(N2CCOCC2)nc(N)[n+]1OS(=O)(=O)[O-]`, the Delta blood pressure with Rattus norvegicus [2] was -37 mmHg.
For `Nc1cc(N2CCCCC2)nc(N)[n+]1OS(=O)(=O)[O-]` [MINOXIDIL SULFATE], the Delta blood pressure in the assay with Rattus norvegicus [3] is given as -16 mmHg.
In the case of `CNc1cc(N)[n+](OS(=O)(=O)[O-])c(N)n1`, the Delta blood pressure in the assay on Rattus norvegicus [4] is -8 mmHg.
On to `Cc1cc(N2CCCC2)nc(N)[n+]1OS(=O)(=O)[O-]`, for which, in the assay with Rattus norvegicus [4], the Delta blood pressure is reported as -39 mmHg.
